Measured values reported in US10376558B2, “Method and compositions for synchronizing time of insemination in gilts” (UNITED-AH II, LLC, priority 2012, dated 2019).

Key:
Type in all cases: in vivo, swine
[1] = tested on: gilts; test: Example 5: estrus detection after 100, 200 or 400 mcg triptorelin gel; conditions: raw average, PTK 2-07
Protocol: (§1) All gilts were individually fed MATRIX® as a top-dress for 14 or 15 days at the recommended rate of 15 mg/gilt/day. Gilts were withdrawn from MATRIX® feeding (last top-dress in the morning on Day 0) and allocated to each of the following treatments. Controls were vehicle gel treated (vehicle gel without triptorelin) at 120 (+/−2) hours following MATRIX® withdrawal (last top dress). The other gilts were given 100, 200 or 400 mcg triptorelin as the acetate in a methylcellulose gel formulation 120 (+/−2) hours following MATRIX® withdrawal. The four treatments were:
For post-treatment estrus detection, gilts were housed in individual pens. Boars were housed in separate rooms, and/or at least 12 m away and downwind. To elicit signs of estrus, a mature boar was walked slowly in the alley in front of the gilts' crates, exposing each test gilt to visual, auditory and olfactory signals from the boar for up to 5 minutes. In keeping with standard practice at commercial farms, while the boar was near the front of the gilt's crate, estrus was tested by an experienced person applying back pressure to the midsection of the gilt combined with side rubbing. Estrus was confirmed when a gilt stood rigidly to the back pressure, with no vocalization and with some indication of an ear reflex. Gilts were not exposed to boars during the first three days after withdrawal of MATRIX® (Day 0 to Day 2). Estrus detection was performed daily on all gilts from Day 3 to Day 7.
(§2) A single 2 mL dose of triptorelin gel or vehicle gel was deposited within approximately 1-2 cm posterior to the cervix with a catheter similar to those used for artificial insemination. The dose was delivered using a standard multi-dose applicator attached to the catheter. A new disposable sheath, which surrounds the catheter, was used for each gilt.

[2] = tested on: gilts; test: Example 1: estrus detection after triptorelin gel at 96, 120 or 144 h after last MATRIX feeding; conditions: raw average, PTK 1-07 (rep 3); 200 mcg T at 120 h after MATRIX withdrawal
Protocol: All gilts were individually fed MATRIX® as a top-dress for 14 days at the recommended rate of 15 mg/gilt/day. Gilts were withdrawn from MATRIX® feeding (last top feed in the morning on Day 0) and allotted to treatments. Controls were treated with a 1.2% methylcellulose gel formulation without triptorelin at 96 hours following MATRIX® withdrawal (last top-dress). The remaining gilts received 200 mcg triptorelin, as the acetate, in a 1.2% methylcellulose gel formulation intravaginally at various times after MATRIX® withdrawal. The four treatments were: 1) vehicle gel (VG) treatment at 96 hours after MATRIX® withdrawal, 2) triptorelin gel (TG) treatment at 96 hours after MATRIX® withdrawal, 3) TG treatment at 120 hours after MATRIX® withdrawal and 4) TG treatment at 144 hours after MATRIX® withdrawal. All gilts were monitored for their estrous and ovulatory status as described below. Gilts included in replicate 1 were selected from terminal line commercial production gilts located in grow/finish barns. Sexual maturity, as indicated by one or more estrous periods, was not verified prior to the start of MATRIX® feeding. Gilts included in replicate 2 were selected from a maternal line gilt population. Sexual maturity was verified by at least one estrous period verified and recorded prior to starting MATRIX® feeding. […]
Data were analyzed using the Mixed Models procedures of SAS. […]

[3] = tested on: gilts; test: Example 5: ovulation monitoring by transrectal ultrasonography after 100, 200 or 400 mcg triptorelin gel at 120 h post-MATRIX; conditions: for Percentage ovulated by 48 hours: after treatment; for Time at which ovulation detected: relative to time of triptorelin gel treatment, Least Squares Mean ± SE; for % of Sows Ovulating / Interval from MATRIX Withdrawal to Ovulation: raw average, PTK 2-07
Protocol: as §1
2. TG 100: 100 mcg (2 mL 50 mcg/mL) triptorelin gel at 120 (+/−2) hours after MATRIX® withdrawal.
3. TG 200: 200 mcg (2 mL 100 mcg/mL) triptorelin gel at 120 (+/−2) hours after MATRIX® withdrawal.
4. TG 400: 400 mcg (2 mL 200 mcg/mL) triptorelin gel at 120 (+/−2) hours after MATRIX® withdrawal.
Ovulation was monitored twice on Day 5 (8 hours and 16 hours post-treatment) and every 8 hours on Day 6 and Day 7 or until ovulation was confirmed or 176 hours following last MATRIX® feeding. The ovulatory status of all gilts was monitored by transrectal ultrasonography. An Aloka 500 ultrasound machine is used for this purpose, with a 7.5 MHz linear array transducer attached to a fixed-angle PVC stabilizing rod to facilitate insertion into the rectum. The transducer and PVC rod are coated with a gynecological lubricant and gently inserted into the rectum until the ovaries can be visualized, one at a time. The diameters of the three largest follicles were recorded (to the nearest 0.1 mm) at each scanning. A gilt was declared to have ovulated when the number of large follicles (≥6.5 mm) fell to less than 3.
as §2

[4] = 100 mcg T at 120 h after MATRIX withdrawal
[5] = 200 mcg T at 120 h after MATRIX withdrawal
[6] = 400 mcg T at 120 h after MATRIX withdrawal
[7] = 100 mcg T (n = 6 catheterized gilts)
[8] = 200 mcg T (n = 7 catheterized gilts)

CC(C)C[C@H](NC(=O)[C@@H](Cc1c[nH]c2ccccc12)NC(=O)[C@H](Cc1ccc(O)cc1)NC(=O)[C@H](CO)NC(=O)[C@H](Cc1c[nH]c2ccccc12)NC(=O)[C@H](Cc1c[nH]cn1)NC(=O)[C@@H]1CCC(=O)N1)C(=O)N[C@@H](CCCNC(=N)N)C(=O)N1CCC[C@H]1C(=O)NCC(N)=O [T, pGlu-His-Trp-Ser-Tyr-D-Trp-Leu-Arg-Pro-Gly-NH2] was tested, and the “Estrous Expression (%)” value [1, 4] was 75.0%, the “Interval from MATRIX withdrawal to Estrus” value (“Interval … to Estrus” for short) [1, 4] was 134.4 h and the “Estrous Expression (%)” value [1, 5] was 81.0%. The “Interval … to Estrus” value [1, 5] was 136.9 h, the “Estrous Expression (%)” value [1, 6] was 86.4% and the “Interval … to Estrus” value [1, 6] was 133.9 h. The “Estrous Expression (%)” value [2] was 100.0%, the “Interval … to Estrus” value [2] was 129.6 h and the “Percentage ovulated by 48 hours” value [3, 7] was 100%. For the same compound, the “Time at which ovulation detected” value [3, 7] was 40 ± 10 h, the “Percentage ovulated by 48 hours” value [3, 8] was 100% and the “Time at which ovulation detected” value [3, 8] was 34 ± 9 h. The “% of Sows Ovulating” value ([3]; 100 mcg T at 120 h, 128 h post-MATRIX, 8 h post-T) was 0.0%, the “% of Sows Ovulating” value ([3]; 100 mcg T at 120 h, 136 h post-MATRIX, 16 h post-T) was 5.0% and the “% of Sows Ovulating” value ([3]; 100 mcg T at 120 h, 144 h post-MATRIX, 24 h post-T) was 20.0%. The “% of Sows Ovulating” value ([3]; 100 mcg T at 120 h, 152 h post-MATRIX, 32 h post-T) was 30.0%, the “% of Sows Ovulating” value ([3]; 100 mcg T at 120 h, 160 h post-MATRIX, 40 h post-T) was 60.0% and the “% of Sows Ovulating” value ([3]; 100 mcg T at 120 h, 168 h post-MATRIX, 48 h post-T) was 95.0%. For the same compound, the “% of Sows Ovulating” value ([3]; 100 mcg T at 120 h, 176 h post-MATRIX, 56 h post-T) was 100.0%, the “Interval from MATRIX Withdrawal to Ovulation” value (“Interval … to Ovulation” for short) [3, 4] was 159.2 and the “% of Sows Ovulating” value ([3]; 200 mcg T at 120 h, 128 h post-MATRIX, 8 h post-T) was 0.0%. The “% of Sows Ovulating” value ([3]; 200 mcg T at 120 h, 136 h post-MATRIX, 16 h post-T) was 0.0%, the “% of Sows Ovulating” value ([3]; 200 mcg T at 120 h, 144 h post-MATRIX, 24 h post-T) was 23.8% and the “% of Sows Ovulating” value ([3]; 200 mcg T at 120 h, 152 h post-MATRIX, 32 h post-T) was 33.3%. The “% of Sows Ovulating” value ([3]; 200 mcg T at 120 h, 160 h post-MATRIX, 40 h post-T) was 52.4%, the “% of Sows Ovulating” value ([3]; 200 mcg T at 120 h, 168 h post-MATRIX, 48 h post-T) was 95.2% and the “% of Sows Ovulating” value ([3]; 200 mcg T at 120 h, 176 h post-MATRIX, 56 h post-T) was 95.2%. The “Interval … to Ovulation” value [3, 5] was 158.8, the “% of Sows Ovulating” value ([3]; 400 mcg T at 120 h, 128 h post-MATRIX, 8 h post-T) was 4.5% and the “% of Sows Ovulating” value ([3]; 400 mcg T at 120 h, 136 h post-MATRIX, 16 h post-T) was 9.1%. For the same compound, the “% of Sows Ovulating” value ([3]; 400 mcg T at 120 h, 144 h post-MATRIX, 24 h post-T) was 22.7%, the “% of Sows Ovulating” value ([3]; 400 mcg T at 120 h, 152 h post-MATRIX, 32 h post-T) was 36.4% and the “% of Sows Ovulating” value ([3]; 400 mcg T at 120 h, 160 h post-MATRIX, 40 h post-T) was 63.6%. The “% of Sows Ovulating” value ([3]; 400 mcg T at 120 h, 168 h post-MATRIX, 48 h post-T) was 100.0%, the “% of Sows Ovulating” value ([3]; 400 mcg T at 120 h, 176 h post-MATRIX, 56 h post-T) was 100.0% and the “Interval … to Ovulation” value [3, 6] was 157.1.
